Like-named read-outs stand apart in the source and are kept apart here.
Experiments:
[1] = target: recombinant HIV-1 protease (Human immunodeficiency virus type 1 group M subtype B, UniProt P04585); experiment: biochemical; assay type: biochemical; conditions: Ki (nM)
[2] = target: T1, WT (Human immunodeficiency virus type 1 group M subtype B, UniProt P04585); experiment: biochemical; design: species or system HIV
[3] = target: T2, 84V90M (Human immunodeficiency virus type 1 group M subtype B, UniProt P04585, I572V/L578M); experiment: biochemical; assay type: biochemical, HIV
[4] = target: T1, WT; experiment: cell-based; design: species or system HIV
[5] = target: T2, 84V90M; experiment: cell-based; design: species or system HIV
[6] = tested on: 30N82I88D; experiment: microbe, parasite or virus in culture; assay type: cell-based, HIV
[7] = tested on: 48V54V82A; experiment: microbe, parasite or virus in culture; assay type: cell-based, HIV
[8] = tested on: 48V54V82S; experiment: microbe, parasite or virus in culture; design: species or system HIV; conditions: Human immunodeficiency virus 1, read-out: Cell-based assay (MT-4) EC50/nM 48V54V82S
[9] = tested on: 48V82A90M; experiment: microbe, parasite or virus in culture; design: species or system HIV; conditions: Human immunodeficiency virus 1, read-out: Cell-based assay (MT-4) EC50/nM 48V82A90M
[10] = tested on: 46I50V; experiment: microbe, parasite or virus in culture; assay type: cell-based, HIV
[11] = target: T2, 84V90M; experiment: Cell-based assay (MT-4) EC50, 84V90M; design: species or system HIV-1
[12] = tested on: recombinant HIV-1 strains with resistance mutations in the protease gene; experiment: Cross-Resistance Profile Assay, whole panel; assay type: cell-based
[13] = tested on: MT-2 cells
[14] = tested on: WT; design: species or system HIV-1; conditions: read-out: Cell-based assay (MT-4) EC50/nM WT
[15] = tested on: recombinant HIV-1 46I/84A; experiment: Cross-Resistance Profile Assay; assay type: cell-based
[16] = tested on: recombinant HIV-1 46I/47V/50V; experiment: Cross-Resistance Profile Assay; assay type: cell-based
[17] = tested on: recombinant HIV-1 10R/46I/82T/84V; experiment: Cross-Resistance Profile Assay; assay type: cell-based
[18] = tested on: recombinant HIV-1 10F/46I/71V/82T/90M; experiment: Cross-Resistance Profile Assay; assay type: cell-based
[19] = tested on: recombinant HIV-1 10I/48V/71V/82A/90M; experiment: Cross-Resistance Profile Assay; assay type: cell-based
[20] = tested on: recombinant HIV-1 48V/54V/71V/82S; experiment: Cross-Resistance Profile Assay; assay type: cell-based
[21] = tested on: recombinant HIV-1 10I/84V/71V/73S/90M; experiment: Cross-Resistance Profile Assay; assay type: cell-based
[22] = target: T2, 84V90M; assay type: biochemical, HIV-1; conditions: 84V90M enzyme; read-out: Enzymatic assay 84V90M IC50/nM
[23] = tested on: mutant HIV-1 with I84V/L90M mutations; assay type: cell-based; conditions: fold difference in EC50 vs wild type, class symbols
[24] = tested on: recombinant HIV-1 10I/48V/54V/82A; experiment: Cross-Resistance Profile Assay; assay type: cell-based
[25] = tested on: recombinant HIV-1 30N/50S/82I/88D; experiment: Cross-Resistance Profile Assay; assay type: cell-based
[26] = tested on: recombinant HIV-1 54V/71V/82S; experiment: Cross-Resistance Profile Assay; assay type: cell-based

CCOP(=O)(CCCNC(=O)c1cccc(CN2C(=O)N(Cc3ccc(O)cc3)C(Cc3ccccc3)C(O)C(O)C2Cc2ccccc2)c1)OCC (stereo not shown)
Ki [1]: 0.009 nM
IC50 [2]: 1.1 nM
IC50 [3]: 12 nM
EC50 [4]: 65 nM
EC50 [5]: 311 nM
EC50 ([6]; Human immunodeficiency virus 1, read-out: Cell-based assay (MT-4) EC50/nM 30N82I88D): 74 nM
EC50 ([7]; Human immunodeficiency virus 1, read-out: Cell-based assay (MT-4) EC50/nM 48V54V82A): 80 nM
EC50 [8]: 75 nM
EC50 [9]: 74 nM
EC50 ([10]; Human immunodeficiency virus 1, read-out: Cell-based assay (MT-4) EC50/nM 46I50V): 85 nM

O=C1N(Cc2ccccc2)C(Cc2ccccc2)C(O)C(O)C(Cc2ccc(OCP(=O)(OCc3ccccc3)OCc3ccccc3)cc2)N1Cc1ccccc1 (stereo not shown)
EC50 [11]: > 6000 nM

CCCCOC(=O)C(C)NP(=O)(COc1ccc(CC(NC(=O)OC2COC3OCCC23)C(O)CN(CC(C)C)S(=O)(=O)c2ccc(OC)cc2)cc1)NC(C)C(=O)OCCCC (stereo not shown) [GS-16503]
Total No. of Resistant Viruses ([12]; resistance = 5-fold and higher change in EC50 relative to wild type, 11 mutant viruses): 0
increase of conversion to acid metabolites at 1 μM vs. 10 μM [13]: 3 fold

O=C1N(Cc2ccccc2)C(Cc2ccccc2)C(O)C(O)C(Cc2ccc(O)cc2)N1Cc1ccccc1 (stereo not shown) [H / Ph / OH]
EC50 [14]: 1260 nM

Cc1cccc(C)c1OCC(=O)N[C@@H](Cc1ccccc1)[C@@H](O)C[C@H](Cc1ccccc1)NC(=O)[C@H](C(C)C)N1CCCNC1=O [Lopinavir]
Fold Change in EC50 Relative to WT HIV-1 [15]: 9 fold
Fold Change in EC50 Relative to WT HIV-1 [16]: 19 fold
Fold Change in EC50 Relative to WT HIV-1 [17]: 11 fold
Fold Change in EC50 Relative to WT HIV-1 [18]: 7.5 fold
Fold Change in EC50 Relative to WT HIV-1 [19]: 4.5 fold
Fold Change in EC50 Relative to WT HIV-1 [20]: 60 fold
Fold Change in EC50 Relative to WT HIV-1 [21]: 11 fold
Total No. of Resistant Viruses ([12]; {}): 6

CCOP(=O)(COCCCN1C(=O)N(Cc2ccc3[nH]nc(N)c3c2)C(Cc2ccccc2)C(O)C(O)C1Cc1ccccc1)OCC (stereo not shown) [OCH2PO3Et2]
EC50 ([4]; MT-4, WT, read-out: Cell-based assay (MT-4) EC50/nM WT): 356 nM
EC50 ([6]; MT-4, 30N82I88D, read-out: Cell-based assay (MT-4) EC50/nM 30N82I88D): 145 nM
EC50 ([7]; MT-4, 48V54V82A, read-out: Cell-based assay (MT-4) EC50/nM 48V54V82A): 175 nM
EC50 ([10]; MT-4, 46I50V, read-out: Cell-based assay (MT-4) EC50/nM 46I50V): 138 nM

CCOP(=O)(CCNC(=O)Oc1ccc(CC2C(O)C(O)C(Cc3ccc(OC)cc3)N(Cc3cccc(N)c3)C(=O)N2Cc2cccc(N)c2)cc1)OCC (stereo not shown) [OCH3 / Ph-mNH2 / OCONH(CH2)2PO3Et2]
IC50 [22]: 116 nM
EC50 [11]: 2260 nM

CCOP(=O)(CCNC(=O)Oc1ccc(CC2C(O)C(O)C(Cc3ccc(OC)cc3)N(Cc3ccc(O)cc3)C(=O)N2Cc2ccc(O)cc2)cc1)OCC (stereo not shown) [OCH3 / Ph-pOH / OCONH(CH2)2PO3Et2]
EC50 [11]: 495 nM

CCC[C@@]1(CCc2ccccc2)CC(O)=C([C@H](CC)c2cccc(NS(=O)(=O)c3ccc(C(F)(F)F)cn3)c2)C(=O)O1 [Tipranavir]
I84V/L90M fold change [23]: + (>3 to ≦10)
Fold Change in EC50 Relative to WT HIV-1 [15]: 1 fold
Fold Change in EC50 Relative to WT HIV-1 [24]: 0.4 fold
Fold Change in EC50 Relative to WT HIV-1 [16]: 0.5 fold
Fold Change in EC50 Relative to WT HIV-1 [17]: 5 fold
Fold Change in EC50 Relative to WT HIV-1 [25]: 0.5 fold
Fold Change in EC50 Relative to WT HIV-1 [26]: 3.5 fold
Fold Change in EC50 Relative to WT HIV-1 [18]: 3 fold
Fold Change in EC50 Relative to WT HIV-1 [19]: 0.3 fold
Fold Change in EC50 Relative to WT HIV-1 [20]: 2 fold
Total No. of Resistant Viruses ([12]; {}): 1
